Patent US8691799B2, “Materials and methods for treatment of cancer and identification of anti-cancer compounds” (priority 2001, dated 2014)
“Also recorded” adds a separate entry of the source.

Legend:
phosphotyrosine JAK2 = experiment: Western blotting for phosphotyrosine JAK2; format: cell-based, human; settings: A-549 cells; for inhibition of phospho JAK2 levels (in words): 0-10 μM; for IC50: Western blotting, read-out: IC50 for phospho-JAK2
Experimental: (§1) Western Blotting. Treated cell samples were lysed in 30 mM Hepes, pH 7.5, 10 mM NaCl, 5 mM MgCl2, 25 mM NaF, 1 mM EGTA, 1% Triton-X-100, 10% glycerol, 2 mM sodium orthovanadate, 10 μg/ml aprotinin, 10 μg/ml soybean trypsin inhibitor, 25 μg/ml leupeptin, 2 mM PMSF, and 6.4 mg/ml p-nitrophenylphosphate. Phospho-STAT3, phospho-AKT, phospho-MEK, and phospho-p42/p44 MAPK antibodies were obtained from Cell Signaling Technologies, Cambridge, Mass. Antibodies to STAT3, JAK2, and phospho-INK were purchased from Santa Cruz Biotechnology, Santa Cruz, Calif. Phospho-JAK2 antibody came from Upstate Biotechnology, Lake Placid, N.Y. Membranes were blocked in either 5% milk in PBS, pH 7.4, containing 0.1% Tween-20 (PBS-T) or 1% BSA in TBS, pH 7.5, containing 0.1% Tween-20 (TBS-T). Phospho-specific antibodies (excepting P-MAPK and P-JNK) were incubated in 1% BSA in TBS-T while all other antibodies were diluted in 5% milk in PBS-T for either 2 hr at room temperature or overnight at 4° C. HRP-conjugated secondary antibodies (Jackson ImmunoResearch) were diluted in 5% milk in either PBS-T or TBS-T at 1:1000 dilution for one hour at room temperature. Western blots were visualized using enhanced chemiluminescence as described previously (Blaskovich, M. A. et al. Nat. Biotechnol., 2000, 18:1065-1070).

v-Src/NIH 3T3 tumors = experiment: Antitumor activity, v-Src-transformed NIH 3T3 tumors in nude mice; format: in vivo; settings: for inhibition of growth of v-src transformed NIH 3T3 tumors (in words): 1 mg/Kg/day intraperitoneally
Description: Antitumor Activity in the Nude Mouse Tumor Xenograft Model. Nude mice and C57 BL-6 black mice (National Cancer Institute, Bethesda, Md.) were maintained in accordance with the Institutional Animal Care and Use Committee (IACUC) procedures and guidelines. v-Src- and oncogenic H-Ras-transformed NIH 3T3, A549, MDA-MB-468 and Calu-1 cells were harvested, resuspended in PBS and injected s.c. into the right and left flank (10×10^6 cells per flank) of 8 week old female nude mice as reported previously (Sun, J. et al. Cancer Res., 1999, 59:4919-4926). Similarly, murine B16-F10 Melanoma cells were injected s.c. into the right and left flank (10^6 cells per flank) of C57 black mice. […] […] The tumor volumes were determined by measuring the length (l) and the width (w) and calculating the volume (V=1w^2/2) as described previously (Sun, J. et al. Cancer Res., 1999, 59:4919-4926). Statistical significance between control and treated animals were evaluated by using Student's t-test. For the mouse survival experiments, C57 BL-6 black mice were implanted s.c. with B16-F10 cells (10^5 to 10^6 cells per flank). […] Percent surviving mice was determined by monitoring the death of mice until all mice died. Two experiments of 12 animals each (6 control and 6 treated with JSI-124) were carried out. For statistical analysis: for each of the two experiments, mice receiving JSI-124 were compared to those receiving vehicle control with respect to survival using the permutation log rank test as implemented in the statistical software package, ProcStatXact (p-values are two sided and exact).

phosphotyrosine STAT3 = experiment: Western blotting for phosphotyrosine STAT3 in cancer cell lines; format: cell-based, human; settings: A-549 cells; for inhibition of phospho STAT3 levels (in words): 0-10 μM; for IC50: Western blotting, read-out: IC50 for phospho-STAT3
Experimental: as §1
Immunoprecipitation of STAT3. A549 cells were treated for 4 hr with vehicle or JSI-124, then lysed in 150 mM Hepes, pH 7.5, 150 mM NaCl, 1 mM EDTA, 0.5% Nonidet P-40 (NP-40), 10% glycerol, 5 mM NaF, 1 mM DTT, 1 mM PMSF, 2 mM sodium orthovanadate, and 5 μg/ml leupeptin. Sample lysates were collected and cleared, then 500 μg of lysate was immunoprecipitated with 50 ng STAT3 antibody overnight at 4° C. then rocked with 25 μl Protein A/G PLUS agarose (Santa Cruz Biotechnology) for 1 hr at 4° C. Samples were washed four times with lysis buffer then boiled in 2×SDS-PAGE sample buffer and run on 10% SDS-PAGE gel. Protein was transferred to nitrocellulose and then blotted as above for both phospho-specific STAT3 and STAT3.

[1] = Tolerability observations in treated mice; format: in vivo
Description: Antitumor Activity in the Nude Mouse Tumor Xenograft Model. Nude mice and C57 BL-6 black mice (National Cancer Institute, Bethesda, Md.) were maintained in accordance with the Institutional Animal Care and Use Committee (IACUC) procedures and guidelines. v-Src- and oncogenic H-Ras-transformed NIH 3T3, A549, MDA-MB-468 and Calu-1 cells were harvested, resuspended in PBS and injected s.c. into the right and left flank (10×10^6 cells per flank) of 8 week old female nude mice as reported previously (Sun, J. et al. Cancer Res., 1999, 59:4919-4926). Similarly, murine B16-F10 Melanoma cells were injected s.c. into the right and left flank (10^6 cells per flank) of C57 black mice. When tumors reached about 150 mm^3, animals were randomized (five animals per group; two tumors per animal) and dosed i.p. with 0.2 ml once daily. […] The tumor volumes were determined by measuring the length (l) and the width (w) and calculating the volume (V=1w^2/2) as described previously (Sun, J. et al. Cancer Res., 1999, 59:4919-4926). Statistical significance between control and treated animals were evaluated by using Student's t-test. For the mouse survival experiments, C57 BL-6 black mice were implanted s.c. with B16-F10 cells (10^5 to 10^6 cells per flank). On day 5 after implantation the mice were randomized (6 animals per group) and treated with either vehicle or JSI-124 (1 mg/Kg/day) for 25 days. Percent surviving mice was determined by monitoring the death of mice until all mice died. Two experiments of 12 animals each (6 control and 6 treated with JSI-124) were carried out. For statistical analysis: for each of the two experiments, mice receiving JSI-124 were compared to those receiving vehicle control with respect to survival using the permutation log rank test as implemented in the statistical software package, ProcStatXact (p-values are two sided and exact).

Compound | inhibition of phospho JAK2 levels (in words) (phosphotyrosine JAK2) | IC50 (phosphotyrosine JAK2) | inhibition of growth of v-src transformed NIH 3T3 tumors (in words) (v-Src/NIH 3T3 tumors) | inhibition of phospho STAT3 levels (in words) (phosphotyrosine STAT3) | IC50 (phosphotyrosine STAT3) | further results
CC(=O)OC(C)(C)/C=C/C(=O)[C@](C)(O)[C@H]1[C@H](O)C[C@@]2(C)[C@@H]3CC=C4[C@@H](C[C@H](O)C(=O)C4(C)C)[C@]3(CO)C(=O)C[C@]12C [cucurbitacin A] | inhibits only phospho JAK2 | 1000 nM | did not significantly inhibit tumor growth | not phospho STAT3 levels; also recorded: no phospho STAT3 levels | > 10000 nM | inhibition of growth of v-src transformed NIH 3T3 tumors (in words) (v-Src/NIH 3T3 tumors; listed as curbitacin A): did not; inhibition of growth of v-Src/NIH 3T3 tumors (v-Src/NIH 3T3 tumors; 1 mg/kg/day i.p.): 16%
CC(=O)OC(C)(C)/C=C/C(=O)[C@](C)(O)[C@H]1[C@H](O)C[C@@]2(C)[C@@H]3CC=C4[C@H](C[C@H](O)C(=O)C4(C)C)[C@]3(C)C(=O)C[C@]12C [cucurbitacin B] |  | 200 nM |  |  | 4000 nM | inhibition of growth of v-Src/NIH 3T3 tumors, 0.2 mpk/day (v-Src/NIH 3T3 tumors; 0.2 mpk/day): 40%; toxicity in tumor-bearing nude mice at 1 mpk ([1]; 1 mg/kg/day i.p.): toxic; toxicity in tumor-bearing nude mice at 0.2 mpk/day ([1]; 0.2 mpk/day (200 μg/kg/day)): not toxic; additional loss of inhibitory activity against phosphotyrosine-STAT3 versus cucurbitacin E (phosphotyrosine STAT3): five-fold
CC(C)(O)/C=C/C(=O)[C@](C)(O)[C@H]1[C@H](O)C[C@@]2(C)[C@@H]3CC=C4[C@@H](C[C@H](O)C(=O)C4(C)C)[C@]3(C)C(=O)C[C@]12C [cucurbitacin D] |  |  |  |  |  | change of activity against phospho JAK2 versus cucurbitacin B (phosphotyrosine JAK2): no effects; reduction of activity against phospho STAT3 versus cucurbitacin B (phosphotyrosine STAT3): 2 fold
CC(=O)OC(C)(C)/C=C/C(=O)[C@](C)(O)[C@H]1[C@H](O)C[C@@]2(C)[C@@H]3CC=C4[C@@H](C=C(O)C(=O)C4(C)C)[C@]3(C)C(=O)C[C@]12C [cucurbitacin E] |  | 200 nM | inhibit tumor growth |  | 800 nM | loss of activity against phospho-STAT3 versus cucurbitacin I (phosphotyrosine STAT3): four-fold
CC(C)(O)CCC(=O)[C@](C)(O)[C@H]1[C@H](O)C[C@@]2(C)[C@@H]3CC=C4[C@@H](C[C@H](O)C(=O)C4(C)C)[C@]3(C)C(=O)C[C@]12C [tetrahydro-cucurbitacin I] |  |  | inhibit tumor growth |  |  | change of activity against phospho JAK2 versus cucurbitacin I (phosphotyrosine JAK2): reduction of activity against phospho-STAT3 and phospho JAK2; change of activity against phospho-STAT3 versus cucurbitacin I (phosphotyrosine STAT3): reduction of activity against phospho-STAT3 and phospho JAK2
cucurbitacin Q | not phospho JAK2 levels | > 10000 nM | inhibit tumor growth; also recorded: as potent as curcubatacin I at inhibiting tumor growth | inhibits phospho STAT3 | 2000 nM | inhibition of growth of v-src transformed NIH 3T3 tumors (in words) (v-Src/NIH 3T3 tumors; listed as Cucurbitacin Q): as potent as cucurbatacin I at inhibiting tumor growth; gain in activity against STAT3 activation versus cucurbitacin B (phosphotyrosine STAT3): 2 fold
